Assay results reported in US20070161637A1, “Substituted pyridin-2-ylamine analogues” (Neurogen Corporation, priority 2003, published 2007).

Target: T1, human capsaicin receptor (Homo sapiens, UniProt Q8NER1)
T1 construct: transfected with the pBK-CMV expression construct encoding the full length human capsaicin receptor; expressed in transfected cells; host or cells: HEK293, stably transfected clonal lines, plasmid pBK-CMV
Experiment: Calcium mobilization assay, determination of antagonist activity (Example 6)
Type: cell-based
Settings: concentration giving 50% decrease in the fluorescence response of cells expressing human capsaicin receptor exposed to capsaicin
Procedure: A cDNA encoding full length human capsaicin receptor (SEQ ID NO:1, 2 or 3 of U.S. Pat. No. 6,482,611) was subcloned in the plasmid pBK-CMV (Stratagene, La Jolla, Calif.) for recombinant expression in mammalian cells.
Human embryonic kidney (HEK293) cells were transfected with the pBK-CMV expression construct encoding the full length human capsaicin receptor using standard methods. The transfected cells were selected for two weeks in media containing G418 (400 μg/ml) to obtain a pool of stably transfected cells. Independent clones were isolated from this pool by limiting dilution to obtain clonal stable cell lines for use in subsequent experiments.
Cells transfected with expression plasmids (as described in Example 4) and thereby expressing human capsaicin receptor are seeded and grown to 70-90% confluency in FALCON black-walled, clear-bottomed 96-well plates (#3904, BECTON-DICKINSON, Franklin Lakes, N.J.). The culture medium is emptied from the 96 well plates and FLUO-3 AM calcium sensitive dye (Molecular Probes, Eugene, Oreg.) is added to each well (dye solution: 1 mg FLUO-3 AM, 440 μL DMSO and 440 μl 20% pluronic acid in DMSO, diluted 1:250 in Krebs-Ringer HEPES (KRH) buffer (25 mM HEPES, 5 mM KCl, 0.96 mM NaH2PO4, 1 mM MgSO4, 2 mM CaCl2, 5 mM glucose, 1 mM probenecid, pH 7.4), 50 μl diluted solution per well). Plates are covered with aluminum foil and incubated at 37° C. for 1-2 hours in an environment containing 5% CO2. After the incubation, the dye is emptied from the plates, and the cells are washed once with KRH buffer, and resuspended in KRH buffer.
To measure the ability of a test compound to agonize or antagonize a calcium mobilization response in cells expressing capsaicin receptors to capsaicin or other vanilloid agonist, the EC50 of the agonist capsaicin is first determined. An additional 20 μl of KRH buffer and 1 μl DMSO is added to each well of cells, prepared as described above. 100 μl capsaicin in KRH buffer is automatically transferred by the FLIPR instrument to each well. Capsaicin-induced calcium mobilization is monitored using either FLUOROSKAN ASCENT (Labsystems; Franklin, Mass.) or FLIPR (fluorometric imaging plate reader system; Molecular Devices, Sunnyvale, Calif.) instruments. Data obtained between 30 and 60 seconds after agonist application are used to generate an 8-point concentration response curve, with final capsaicin concentrations of 1 nM to 3 μM. […] software (Synergy Software, Reading, Pa.) is used to fit the data to the equation: y=a*(1/(1+(b/x)^c)) to determine the 50% excitatory concentration (EC50) for the response. In this equation, y is the maximum fluorescence signal, x is the concentration of the agonist or antagonist (in this case, capsaicin), a is the Emax, b corresponds to the EC50 value and c is the Hill coefficient. Determination Agonist Activity
Test compounds are dissolved in DMSO, diluted in 20 μl KRH buffer so that the final concentration of test compounds in the assay well is between 1 μM and 5 μM, and added to cells prepared as described above. The 96 well plates containing prepared cells and test compounds are incubated in the dark, at room temperature for 0.5 to 6 hours. It is important that the incubation not continue beyond 6 hours. Just prior to determining the fluorescence response, 100 μl capsaicin in KRH buffer at twice the EC50 concentration determined as described above is automatically added by the FLIPR instrument to each well of the 96 well plate for a final sample volume of 200 μl and a final capsaicin concentration equal to the EC50. The final concentration of test compounds in the assay wells is between 1 μM and 5 μM.

T1 sequence (Q8NER1 whole entry): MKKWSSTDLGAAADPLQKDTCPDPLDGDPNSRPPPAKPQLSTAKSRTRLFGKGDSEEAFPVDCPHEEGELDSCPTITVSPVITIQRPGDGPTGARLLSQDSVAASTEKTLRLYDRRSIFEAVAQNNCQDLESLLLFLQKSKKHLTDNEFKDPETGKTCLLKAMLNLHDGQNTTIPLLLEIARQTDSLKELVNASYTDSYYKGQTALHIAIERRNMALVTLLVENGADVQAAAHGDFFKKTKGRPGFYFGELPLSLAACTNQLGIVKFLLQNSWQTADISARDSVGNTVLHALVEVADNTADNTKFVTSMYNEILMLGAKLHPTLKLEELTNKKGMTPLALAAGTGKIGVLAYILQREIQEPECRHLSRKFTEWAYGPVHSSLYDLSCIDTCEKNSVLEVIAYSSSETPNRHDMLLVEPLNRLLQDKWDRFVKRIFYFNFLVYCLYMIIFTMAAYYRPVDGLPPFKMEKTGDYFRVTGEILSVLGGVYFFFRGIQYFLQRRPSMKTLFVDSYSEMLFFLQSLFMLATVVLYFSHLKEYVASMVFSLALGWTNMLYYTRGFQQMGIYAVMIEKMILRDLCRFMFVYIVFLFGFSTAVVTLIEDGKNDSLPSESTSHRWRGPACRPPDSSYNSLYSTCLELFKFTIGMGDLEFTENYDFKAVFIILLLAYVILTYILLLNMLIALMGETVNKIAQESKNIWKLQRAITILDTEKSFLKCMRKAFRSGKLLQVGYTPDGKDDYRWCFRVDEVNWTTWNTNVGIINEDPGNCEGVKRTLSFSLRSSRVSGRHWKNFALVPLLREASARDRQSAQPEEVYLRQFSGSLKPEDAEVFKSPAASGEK

Row | SMILES | IC50
1 | CC(C)(C)c1ccc(Nc2nc(Cl)nc(NCc3ccccc3C(F)(F)F)n2)cc1 [Compound 36, N-(4-tert-Butyl-phenyl)-6-chloro-N′-(2-trifluoromethyl-benzyl)-[1,3,5]triazine-2,4-diamine] | ≤ 1000 nM
2 | CN1CCN(c2nc(Nc3ccc(C(C)(C)C)cc3)nc(OCc3ccccc3C(F)(F)F)n2)CC1 [Compound 1, (4-tert-Butyl-phenyl)-[4-(4-methyl-piperazin-1-yl)-6-(2-trifluoromethyl-benzyloxy)-[1,3,5]triazine-2-yl]-amine] | ≤ 1000 nM
3 | CC(C)(C)c1ccc(Nc2nc(NCc3ccccc3Cl)nc(NCc3ccccc3Cl)n2)cc1 [Compound 54, N-(4-tert-Butyl-phenyl)-N′,N″-bis-(2-chloro-benzyl)-[1,3,5]triazine-2,4,6-triamine] | ≤ 1000 nM
4 | CC(C)(C)c1ccc(Nc2cc(NCc3cccnc3)ncn2)cc1 [Compound 57, N-(4-tert-Butyl-phenyl)-N′-pyridin-3-ylmethyl-pyrimidine-4,6-diamine] | ≤ 1000 nM
5 | CCN(CC)c1nc(Nc2ccc(C(F)(F)F)cc2)nc(OCc2ccccc2C(F)(F)F)n1 [Compound 59, N,N-Diethyl-6-(2-trifluoromethyl-benzyloxy)-N′-(4-trifluoromethyl-phenyl)-[1,3,5]triazine-2,4-diamine] | ≤ 1000 nM
6 | CC(C)(C)c1ccc(Nc2nc(N)nc(OCc3ccccc3F)n2)cc1 [Compound 31, N-(4-tert-Butyl-phenyl)-6-(2-fluoro-benzyloxy)-[1,3,5]triazine-2,4-diamine] | ≤ 1000 nM
7 | Oc1nc(Nc2ccc(C(F)(F)F)cc2)nc(OCc2ccccc2C(F)(F)F)n1 [Compound 25, 4-(2-Trifluoromethyl-benzyloxy)-6-(4-trifluoromethyl-phenylamino)-[1,3,5]triazin-2-ol] | ≤ 1000 nM
8 | CC(C)(C)c1ccc(Nc2nc(N)nc(OCc3ccccc3Cl)n2)cc1 [Compound 30, N-(4-tert-Butyl-phenyl)-6-(2-chloro-benzyloxy)-[1,3,5]triazine-2,4-diamine] | ≤ 1000 nM
9 | FC(F)(F)c1ccc(Nc2nc(NC3CCC3)nc(OCc3ccccc3C(F)(F)F)n2)cc1 [Compound 63, N-Cyclobutyl-6-(2-trifluoromethyl-benzyloxy)-N′-(4-trifluoromethyl-phenyl)-[1,3,5]triazine-2,4-diamine] | ≤ 1000 nM
10 | CC(C)(C)c1ccc(Nc2nc(OCc3ccccc3Cl)nc(OCc3ccccc3Cl)n2)cc1 [Compound 11, [4,6-Bis-(2-chloro-benzyloxy)-[1,3,5]triazin-2-yl]-(4-tert-butyl-phenyl)-amine] | ≤ 1000 nM
11 | CC(C)(C)c1ccc(Nc2cc(NCc3cccc(F)c3)ncn2)cc1 [Compound 50, N-(4-tert-Butyl-phenyl)-N′-(3-fluoro-benzyl)-pyrimidine-4,6-diamine] | ≤ 1000 nM
12 | CC(C)CCNc1nc(Nc2ccc(C(F)(F)F)cc2)nc(OCc2ccccc2C(F)(F)F)n1 [Compound 29, N-(3-Methyl-butyl)-6-(2-trifluoromethyl-benzyloxy)-N′-(4-trifluoromethyl-phenyl)-[1,3,5]triazine-2,4-diamine] | ≤ 1000 nM
13 | FC(F)(F)c1ccc(Nc2nc(OCc3ccccc3C(F)(F)F)nc(OC3CCCC3)n2)cc1 [Compound 19, [4-Cyclopentyloxy-6-(2-trifluoromethyl-benzyloxy)-[1,3,5]triazin-2-yl]-(4-trifluoromethyl-phenyl)-amine] | ≤ 1000 nM
14 | FC(F)(F)c1ccc(Nc2nc(OCc3ccccc3C(F)(F)F)nc(OCc3ccccc3C(F)(F)F)n2)cc1 [Compound 15, [4,6-Bis-(2-trifluoromethyl-benzyloxy)-[1,3,5]triazin-2-yl]-(4-trifluoromethyl-phenyl)-amine] | ≤ 1000 nM
15 | CC(C)(C)c1ccc(Nc2cc(OCc3ccccc3C(F)(F)F)nc(N)n2)cc1 [Compound 60, N4-(4-tert-Butyl-phenyl)-6-(2-trilfuoromethyl-benzyloxy)-pyrimidine-2,4-diamine] | ≤ 1000 nM
16 | CC(C)(C)c1ccc(Nc2nc(Cl)nc(OCc3ccccc3C(F)(F)F)n2)cc1 [Compound 4, (4-tert-Butyl-phenyl)-[4-chloro-6-(2-trifluoromethyl-benzyloxy)-[1,3,5]triazin-2-yl]-amine] | ≤ 1000 nM
17 | CC(C)(C)c1ccc(Nc2cc(NCc3ccccn3)ncn2)cc1 [Compound 56, N-(4-tert-Butyl-phenyl)-N′-pyridin-2-ylmethyl-pyrimidine-4,6-diamine] | ≤ 1000 nM
18 | FC(F)(F)c1ccc(Nc2nc(NC3CCCCC3)nc(OCc3ccccc3C(F)(F)F)n2)cc1 [Compound 64, N-Cyclohexyl-6-(2-trifluoromethyl-benzyloxy)-N′-(4-trifluoromethyl-phenyl)-[1,3,5]triazine-2,4-diamine] | ≤ 1000 nM

Second part, the molecule after the results:

Row | IC50 | SMILES
19 | ≤ 1000 nM | CC(C)(C)Nc1nc(Nc2ccc(C(F)(F)F)cc2)nc(OCc2ccccc2C(F)(F)F)n1 [Compound 68, N-tert-Butyl-6-(2-trifluoromethyl-benzyloxy)-N′-(4-trifluoromethyl-phenyl)-[1,3,5]triazine-2,4-diamine]
20 | ≤ 1000 nM | CC(C)(C)c1ccc(Nc2cc(NCc3ccncc3)ncn2)cc1 [Compound 58, N-(4-tert-Butyl-phenyl)-N′-pyridin-4-ylmethyl-pyrimidine-4,6-diamine]
21 | ≤ 1000 nM | CC(C)Nc1nc(Nc2ccc(C(F)(F)F)cc2)nc(OCc2ccccc2C(F)(F)F)n1 [Compound 67, N-Isopropyl-6-(2-trifluoromethyl-benzyloxy)-N′-(4-trifluoromethyl-phenyl)-[1,3,5]triazine-2,4-diamine]
22 | ≤ 1000 nM | COc1cc2c(cc1OC)CN(c1nc(Cl)nc(Nc3ccc(C(C)(C)C)cc3)n1)C(C)C2 (centres unmarked) [Compound 7, (4-tert-Butyl-phenyl)-[4-chloro-6-(6,7-dimethoxy-3-methyl-3,4-dihydro-1H-isoquinolin-2-yl)-[1,3,5]triazin-2-yl]-amine]
23 | ≤ 1000 nM | COc1ccccc1COc1nc(Nc2ccc(C(C)(C)C)cc2)nc(OCc2ccccc2OC)n1 [Compound 13, [4,6-Bis-(2-methoxy-benzyloxy)-[1,3,5]triazin-2-yl]-(4-tert-butyl-phenyl)-amine]
24 | ≤ 1000 nM | CC(C)(C)c1ccc(Nc2nc(N)nc(NCc3ccccc3F)n2)cc1 [Compound 43, N-(4-tert-Butyl-phenyl)-N′-(2-fluoro-benzyl)-[1,3,5]triazine-2,4,6-triamine]
25 | ≤ 1000 nM | COc1ccc(CNc2cc(Nc3ccc(C(C)(C)C)cc3)ncn2)cc1 [Compound 53, N-(4-tert-Butyl-phenyl)-N′-(4-methoxy-benzyl)-pyrimidine-4,6-diamine]
26 | ≤ 1000 nM | COc1ccccc1COc1nc(N)nc(Nc2ccc(C(C)(C)C)cc2)n1 [Compound 32, N-(4-tert-Butyl-phenyl)-6-(2-methoxy-benzyloxy)-[1,3,5]triazine-2,4-diamine]
27 | ≤ 1000 nM | FC(F)(F)c1ccc(Nc2nc(NC3CCCC3)nc(OCc3ccccc3C(F)(F)F)n2)cc1 [Compound 65, N-Cyclopentyl-6-(2-trifluoromethyl-benzyloxy)-N′-(4-trifluoromethyl-phenyl)-[1,3,5]triazine-2,4-diamine]
28 | ≤ 1000 nM | FC(F)(F)c1ccc(Nc2nc(OCc3ccccc3C(F)(F)F)nc(-c3ccccc3Cl)n2)cc1 [Compound 9, [4-(2-Chloro-phenyl)-6-(2-trifluoromethyl-benzyloxy)-[1,3,5]triazin-2-yl]-(4-trifluoromethyl-phenyl)-amine]
29 | ≤ 1000 nM | CC(C)(C)c1ccc(Nc2nc(OCc3ccccn3)nc(OCc3ccccn3)n2)cc1 [Compound 17, [4,6-Bis-(pyridin-2-ylmethoxy)-[1,3,5]triazin-2-yl]-(4-tert-butyl-phenyl)-amine]
